Laboratory results published in US20260070945A1, “MACROCYCLIC IMMUNOMODULATORS” (Bristol-Myers Squibb Company, priority 2022, published 2026).
Where a SMILES comes first, the peptide text is derived from it. Bridges are numbered along the chain shown (N, C = ends). [ ]: non-standard residue; d: D form. The star is where a group is joined. ξ: configuration not given here. Phe(4-COOH) = N[C@@H](Cc1ccc(C(=O)O)cc1)C(=O)O; Bip = N[C@@H](Cc1ccc(-c2ccccc2)cc1)C(=O)O; hArg = N=C(N)NCCCC[C@H](N)C(=O)O; 4Pal = N[C@@H](Cc1ccncc1)C(=O)O; Cha = N[C@@H](CC1CCCCC1)C(=O)O; Ile(3ξ) = CCC(C)[C@H](N)C(=O)O; Thr(3ξ) = CC(O)[C@H](N)C(=O)O; Carboxymethyl = O=C(O)C*; NMeA = CN[C@@H](C)C(=O)O; Orn = NCCC[C@H](N)C(=O)O; Aun = NCCCCCCCCCCC(=O)O; Dab = NCC[C@H](N)C(=O)O; Dap = NC[C@H](N)C(=O)O; AEEA = NCCOCCOCC(=O)O; Sar = CNCC(=O)O

What follows are compounds tested against T1, PD-1/PD-L1 interaction (PE-labeled human PD-L1-Ig binding to Jurkat cell line over-expressing human PD-1) (Homo sapiens, UniProt Q15116) (assay: Jurkat-PD-1 Cell Binding High-Content Screening Assay (CBA)). Conditions: Jurkat-hPD-1 cells, PE-labeled PD-L1-Ig 20 nM final; read-out: Jurkat HPD1 PDL1 IC50.
T1 construct: expressed in transfected cells; host or cells: Jurkat
T1 sequence (Q15116 25-288): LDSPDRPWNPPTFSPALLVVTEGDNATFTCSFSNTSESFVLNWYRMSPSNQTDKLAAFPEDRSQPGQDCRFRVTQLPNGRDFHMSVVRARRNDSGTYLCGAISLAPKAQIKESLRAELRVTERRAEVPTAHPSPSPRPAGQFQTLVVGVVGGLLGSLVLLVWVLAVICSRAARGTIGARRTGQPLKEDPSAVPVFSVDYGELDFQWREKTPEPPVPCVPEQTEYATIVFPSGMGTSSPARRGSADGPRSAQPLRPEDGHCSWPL
Method in brief: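 Read-out: high-content imaging of cell-bound PE fluorescence, with Hoechst 33342 nuclear counterstain after paraformaldehyde fixation. Before labeled ligand (20 nM final, 1 h) was added, compound sat on the cells for 2 h at 37 °C in DMEM/10% FCS.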
Work on `CC(C)C[C@@H]1NC(=O)[C@H](Cc2c[nH]c3ccccc23)NC(=O)[C@H](CC(=O)O)NC(=O)[C@H](Cc2ccc(C(=O)O)cc2)NC(=O)[C@H](Cc2ccc(OCC(=O)O)cc2)NC(=O)CSC[C@@H](C(=O)N[C@@H](CCN)C(=O)NCCOCCOCC(=O)NCCCCCCCCCCC(=O)O)NC(=O)[C@H](CO)NC(=O)[C@H](C(C)C)NC(=O)[C@H](CC2CCCCC2)NC(=O)[C@H](CCN)NC(=O)[C@@H](CC(C)C)NC(=O)[C@H](C)N(C)C(=O)[C@H](C(C)C)NC(=O)[C@H](Cc2ccc(-c3ccccc3)cc2)NC1=O` [Example 2094] ({CH2CO}-Y(Carboxymethyl)[Phe(4-COOH)]DWL[Bip]V[NMeA][dL][Dab][Cha]VSC[Dab][AEEA][Aun]-OH; thioether N-14) yielded an IC50 of 0.0096 µM. With `CC(C)C[C@@H]1NC(=O)[C@H](Cc2c[nH]c3ccccc23)NC(=O)[C@H](CC(=O)O)NC(=O)[C@H](Cc2ccc(C(=O)O)cc2)NC(=O)[C@H](Cc2ccc(OCC(=O)O)cc2)NC(=O)CSC[C@@H](C(=O)N[C@@H](CCCN)C(=O)NCCOCCOCC(=O)NCCCCCCCCCCC(=O)O)NC(=O)[C@H](CO)NC(=O)[C@H](C(C)C)NC(=O)[C@H](CC2CCCCC2)NC(=O)[C@H](CCN)NC(=O)[C@@H](CC(C)C)NC(=O)[C@H](C)N(C)C(=O)[C@H](C(C)C)NC(=O)[C@H](Cc2ccc(-c3ccccc3)cc2)NC1=O` [Example 2095] ({CH2CO}-Y(Carboxymethyl)[Phe(4-COOH)]DWL[Bip]V[NMeA][dL][Dab][Cha]VSC[Orn][AEEA][Aun]-OH; thioether N-14) the IC50 was 0.0095 µM. `CC(C)C[C@@H]1NC(=O)[C@H](Cc2c[nH]c3ccccc23)NC(=O)[C@H](CC(=O)O)NC(=O)[C@H](Cc2ccc(C(=O)O)cc2)NC(=O)[C@H](Cc2ccc(OCC(=O)O)cc2)NC(=O)CSC[C@@H](C(=O)N[C@@H](CCCCN)C(=O)NCCOCCOCC(=O)NCCCCCCCCCCC(=O)O)NC(=O)[C@H](CO)NC(=O)[C@H](C(C)C)NC(=O)[C@H](CC2CCCCC2)NC(=O)[C@H](CCN)NC(=O)[C@@H](CC(C)C)NC(=O)[C@H](C)N(C)C(=O)[C@H](C(C)C)NC(=O)[C@H](Cc2ccc(-c3ccccc3)cc2)NC1=O` [Example 2096] ({CH2CO}-Y(Carboxymethyl)[Phe(4-COOH)]DWL[Bip]V[NMeA][dL][Dab][Cha]VSCK[AEEA][Aun]-OH; thioether N-14) gave an IC50 of 0.0118 µM. For `CC(C)C[C@@H]1NC(=O)[C@H](Cc2c[nH]c3ccccc23)NC(=O)[C@H](CC(=O)O)NC(=O)[C@H](Cc2ccccc2)NC(=O)[C@H](Cc2ccc(O)cc2)NC(=O)CSC[C@@H](C(=O)N[C@@H](CCCCN)C(=O)NCCOCCOCC(=O)NCCCCCCCCCCC(=O)O)NC(=O)[C@H](CO)NC(=O)[C@H](C(C)C)NC(=O)[C@H](CC2CCCCC2)NC(=O)[C@H](CCN)NC(=O)[C@@H](CC(C)C)NC(=O)[C@H](C)N(C)C(=O)[C@H](C(C)C)NC(=O)[C@H](Cc2ccc(-c3ccccc3)cc2)NC1=O` [Example 2097] ({CH2CO}-YFDWL[Bip]V[NMeA][dL][Dab][Cha]VSCK[AEEA][Aun]-OH; thioether N-14), the IC50 was 0.0948 µM. Compound `CC(C)C[C@@H]1NC(=O)[C@H](Cc2c[nH]c3ccccc23)NC(=O)[C@H](CC(=O)O)NC(=O)[C@H](Cc2ccccc2)NC(=O)[C@H](Cc2ccc(OCC(=O)O)cc2)NC(=O)CSC[C@@H](C(=O)N[C@@H](CCCCN)C(=O)NCCOCCOCC(=O)NCCCCCCCCCCC(=O)O)NC(=O)[C@H](CO)NC(=O)[C@H](C(C)C)NC(=O)[C@H](CC2CCCCC2)NC(=O)[C@H](CCN)NC(=O)[C@@H](CC(C)C)NC(=O)[C@H](C)N(C)C(=O)[C@H](C(C)C)NC(=O)[C@H](Cc2ccc(-c3ccccc3)cc2)NC1=O` [Example 2098] ({CH2CO}-Y(Carboxymethyl)FDWL[Bip]V[NMeA][dL][Dab][Cha]VSCK[AEEA][Aun]-OH; thioether N-14) has an IC50 of 0.024 µM. Compound `CC(C)C[C@H]1NC(=O)[C@H](C)N(C)C(=O)[C@H](C(C)C)NC(=O)[C@H](Cc2ccc(-c3ccccc3)cc2)NC(=O)[C@H](C(C)C)NC(=O)[C@H](Cc2c[nH]c3ccccc23)NC(=O)[C@H](CC(=O)O)NC(=O)[C@H](Cc2ccc(OCC(=O)O)cc2)NC(=O)[C@H](CN)NC(=O)CSC[C@@H](C(=O)NCCOCCOCC(=O)N[C@@H](CN)C(=O)NCCCCCCCCCCC(=O)O)NC(=O)[C@H](C(C)O)NC(=O)[C@H](C(C)C)NC(=O)[C@H](CC2CCCCC2)NC(=O)[C@H](CCN)NC1=O` (stereo partly drawn) [Example 2099] ({CH2CO}-[Dap]Y(Carboxymethyl)DWV[Bip]V[NMeA][dL][Dab][Cha]V[Thr(3ξ)]C[AEEA][Dap][Aun]-OH; thioether N-14) has an IC50 of 0.017 µM. `CC(C)C[C@H]1NC(=O)[C@H](C)N(C)C(=O)[C@H](C(C)C)NC(=O)[C@H](Cc2ccc(-c3ccccc3)cc2)NC(=O)[C@H](C(C)C)NC(=O)[C@H](Cc2c[nH]c3ccccc23)NC(=O)[C@H](CC(=O)O)NC(=O)[C@H](Cc2ccc(OCC(=O)O)cc2)NC(=O)[C@H](Cc2ccncc2)NC(=O)CSC[C@@H](C(=O)N[C@@H](CCCCN)C(=O)NCCOCCOCC(=O)NCCCCCCCCCCC(=O)O)NC(=O)[C@H](CO)NC(=O)[C@H](C(C)C)NC(=O)[C@H](CC2CCCCC2)NC(=O)[C@H](CCN)NC1=O` [Example 2100] ({CH2CO}-[4Pal]Y(Carboxymethyl)DWV[Bip]V[NMeA][dL][Dab][Cha]VSCK[AEEA][Aun]-OH; thioether N-14) was tested, and the IC50 was 0.0217 µM. For `CC(C)C[C@H]1NC(=O)[C@H](C)N(C)C(=O)[C@H](C(C)C)NC(=O)[C@H](Cc2ccc(-c3ccccc3)cc2)NC(=O)[C@H](C(C)C)NC(=O)[C@H](Cc2c[nH]c3ccccc23)NC(=O)[C@H](CC(=O)O)NC(=O)[C@H](Cc2ccc(C(=O)O)cc2)NC(=O)[C@H](Cc2ccc(OCC(=O)O)cc2)NC(=O)CSC[C@@H](C(=O)N[C@@H](CCCCN)C(=O)NCCOCCOCC(=O)NCCCCCCCCCCC(=O)O)NC(=O)[C@H](CO)NC(=O)[C@H](C(C)C)NC(=O)[C@H](CC2CCCCC2)NC(=O)[C@H](CCN)NC1=O` [Example 2101] ({CH2CO}-Y(Carboxymethyl)[Phe(4-COOH)]DWV[Bip]V[NMeA][dL][Dab][Cha]VSCK[AEEA][Aun]-OH; thioether N-14), the IC50 was 0.0146 µM. For `CC(C)[C@@H]1NC(=O)[C@H](CC2CCCCC2)NC(=O)[C@H](CCN)NC(=O)CN(C)C(=O)[C@H](C)N(C)C(=O)[C@H](C(C)C)NC(=O)[C@H](Cc2ccc(-c3ccccc3)cc2)NC(=O)[C@H](C(C)C)NC(=O)[C@H](Cc2c[nH]c3ccccc23)NC(=O)[C@H](CC(=O)O)NC(=O)[C@H](Cc2ccncc2)NC(=O)[C@H](Cc2ccc(OCC(=O)O)cc2)NC(=O)CSC[C@@H](C(=O)N[C@@H](CCCCN)C(=O)NCCOCCOCC(=O)NCCCCCCCCCCC(=O)O)NC(=O)[C@H](CO)NC1=O` [Example 2102] ({CH2CO}-Y(Carboxymethyl)[4Pal]DWV[Bip]V[NMeA][Sar][Dab][Cha]VSCK[AEEA][Aun]-OH; thioether N-14), the IC50 was 0.337 µM. `CC(C)C[C@H]1NC(=O)[C@H](C)N(C)C(=O)[C@H](C(C)C)NC(=O)[C@H](Cc2ccc(-c3ccccc3)cc2)NC(=O)[C@H](C(C)C)NC(=O)[C@H](Cc2c[nH]c3ccccc23)NC(=O)[C@H](CC(=O)O)NC(=O)[C@H](CCCCNC(=N)N)NC(=O)[C@H](Cc2ccc(OCC(=O)O)cc2)NC(=O)CSC[C@@H](C(=O)N[C@@H](CCCCN)C(=O)NCCOCCOCC(=O)NCCCCCCCCCCC(=O)O)NC(=O)[C@H](CO)NC(=O)[C@H](C(C)C)NC(=O)[C@H](CC2CCCCC2)NC(=O)[C@H](CCN)NC1=O` [Example 2103] ({CH2CO}-Y(Carboxymethyl)[hArg]DWV[Bip]V[NMeA][dL][Dab][Cha]VSCK[AEEA][Aun]-OH; thioether N-14) gave an IC50 of 0.0296 µM. `CCC(C)[C@@H]1NC(=O)[C@H](Cc2ccc(-c3ccccc3)cc2)NC(=O)[C@H](C(C)C)NC(=O)[C@H](Cc2c[nH]c3ccccc23)NC(=O)[C@H](CC(=O)O)NC(=O)[C@H](Cc2ccc(OCC(=O)O)cc2)NC(=O)[C@H](Cc2ccncc2)NC(=O)CSC[C@@H](C(=O)N[C@@H](CCCN)C(=O)NCCOCCOCC(=O)NCCCCCCCCCCC(=O)O)NC(=O)[C@H](C(C)O)NC(=O)[C@H](C(C)C)NC(=O)[C@H](CC2CCCCC2)NC(=O)[C@H](CCN)NC(=O)[C@@H](CC(C)C)NC(=O)[C@H](C)N(C)C1=O` (stereo partly drawn) [Example 2104] ({CH2CO}-[4Pal]Y(Carboxymethyl)DWV[Bip][Ile(3ξ)][NMeA][dL][Dab][Cha]V[Thr(3ξ)]C[Orn][AEEA][Aun]-OH; thioether N-14) was tested, and the IC50 was 0.0141 µM. In the case of `CCC(C)[C@@H]1NC(=O)[C@H](Cc2ccc(-c3ccccc3)cc2)NC(=O)[C@H](C(C)C)NC(=O)[C@H](Cc2c[nH]c3ccccc23)NC(=O)[C@H](CC(=O)O)NC(=O)[C@H](Cc2ccc(OCC(=O)O)cc2)NC(=O)[C@H](Cc2ccncc2)NC(=O)CSC[C@@H](C(=O)N[C@@H](CCCCN)C(=O)NCCOCCOCC(=O)NCCCCCCCCCCC(=O)O)NC(=O)[C@H](C(C)O)NC(=O)[C@H](C(C)C)NC(=O)[C@H](CC2CCCCC2)NC(=O)[C@H](CCN)NC(=O)[C@@H](CC(C)C)NC(=O)[C@H](C)N(C)C1=O` (stereo partly drawn) [Example 2105] ({CH2CO}-[4Pal]Y(Carboxymethyl)DWV[Bip][Ile(3ξ)][NMeA][dL][Dab][Cha]V[Thr(3ξ)]CK[AEEA][Aun]-OH; thioether N-14), the IC50 is reported as 0.015 µM. `CCC(C)[C@@H]1NC(=O)[C@H](Cc2ccc(-c3ccccc3)cc2)NC(=O)[C@H](C(C)C)NC(=O)[C@H](Cc2c[nH]c3ccccc23)NC(=O)[C@H](CC(=O)O)NC(=O)[C@H](Cc2ccncc2)NC(=O)[C@H](Cc2ccc(OCC(=O)O)cc2)NC(=O)CSC[C@@H](C(=O)N[C@@H](CCCN)C(=O)NCCOCCOCC(=O)NCCCCCCCCCCC(=O)O)NC(=O)[C@H](C(C)O)NC(=O)[C@H](C(C)C)NC(=O)[C@H](CC2CCCCC2)NC(=O)[C@H](CCN)NC(=O)[C@@H](CC(C)C)NC(=O)[C@H](C)N(C)C1=O` (stereo partly drawn) [Example 2106] ({CH2CO}-Y(Carboxymethyl)[4Pal]DWV[Bip][Ile(3ξ)][NMeA][dL][Dab][Cha]V[Thr(3ξ)]C[Orn][AEEA][Aun]-OH; thioether N-14) showed an IC50 of 0.008 µM.
